Measured values reported in patent US20090298838A1, “Method for Determination of Effective Dose of Methotrexate” (StaGen Co., Ltd., priority 2005, published 2009).
Marks after values point to notes of the source that are not given here.

Columns and labels:
[1] = test system: patients suffering from the rheumatoid arthritis; settings: A/A genotype (68 individuals) versus A/C and C/C (31 individuals); administration for at least 3 months; cited from earlier work
[2] = test system: patients suffering from rheumatoid arthritis; assay: Relationship between genotype of A1298C polymorphism in the MTHFR gene and dose of methotrexate 12 months after start of administration (157 patients); assay type: in vivo, human; settings: for Risk ratio of high dose: high dose = more than 6 mg/week at 12 months
Experimental: Target patients were 157 patients (M/F=24/133) suffering from rheumatoid arthritis who were attending to Institute of Rheumatology Tokyo Women's Medical University Hospital. All of those patients were different from patients examined in Non-Patent Document 3.
Examinations were performed on genotypes of A1298C in the MTHFR gene in these 157 patients suffering from rheumatoid arthritis and doses of methotrexate to the patients 12 months after a start of administration.
Genomic DNA was extracted from leukocytes in peripheral blood of each patient suffering from rheumatoid arthritis. From the genomic DNA, a DNA region including A1298C in the MTHFR gene was amplified by PCR. The primers shown in SEQ ID NO: 1 and SEQ ID NO: 2 in Sequence Listing were used for the amplification.
The DNA amplification reaction was performed in a system of a total volume of 50 μl, which contains 5 μl of 10×PCR Buffer (Applied Biosystem, Japan), 0.5 μl (=2.5 U) of AmpliTaq Gold (Applied Biosystem, Japan), 5.01 of 8 mM dNTP (200 μM of each dNTP), and 1 μl of each 10 pmole primer (0.2 μM of each primer). Conditions of the PCR included: totally 34 cycles of denaturing at 95° C. for 10 minutes, of reactions each at 95° C. for 30 seconds, at 65° C. for 30 seconds, and at 72° C. for 60 seconds; and final extension at 72° C. for 7 minutes.
The products amplified by the PCR were cut by the restriction enzyme Fnu4I and subjected to electrophoresis to examine whether they were cut or not, to thereby determine the genotypes (A/A, A/C, C/C) in each patient.
Alleles and genotypes in group were compared by using Fisher's exact test for statistic analysis and Chi-square test, and Excel was used as a statistical software.
In the present Example, a dose of more than 6 mg/week 12 months after the start of the administration of the methotrexate was defined as a high dose, and otherwise defined as a low dose. Individuals were classified into A/A, A/C, and C/C based on the genotypes of A1298C polymorphism in the MTHFR and summarized to a relationship between the genotypes and the high dose. As shown in FIG. 1 and Table 2, a ratio of the high dose of the methotrexate was high in the order of A/A>A/C>C/C in the genotypes. […] A possibility that patients having the A/A genotype are required to have a high dose of the methotrexate is 49%. Compared with this, possibilities of patients having the A/C genotype and patients having the C/C genotype were 28% and 13%, respectively (Table 2 and FIG. 1). There were a difference of 1.7 (risk ratio, P<0.05) between A/A and A/C, and a difference of 3.8 (risk ratio, P<0.05) between A/A and C/C.
Table 3 and FIG. 2 show a relationship between the A/A genotype of A1298C polymorphism in the MTHFR and a dose and a relationship between the other genotypes (A/C and C/C) and a dose in all the subjects of the patients suffering from the rheumatoid arthritis. In the present reference example, the dose of more than 6 mg/week 12 months after the start of the administration of the methotrexate was defined as a high dose, and otherwise defined as a low dose. Genotypes of A1298C polymorphism in the MTHFR were classified into A/A and other genotype and summarized to a relationship between the genotypes and the high dose.

What does the source list for `CN(Cc1cnc2nc(N)nc(N)c2n1)c1ccc(C(=O)N[C@@H](CCC(=O)O)C(=O)O)cc1` [methotrexate]?
Proportion ratio of patients administered more than 5 mg/week [1]: 1.78; Ratio of high dose ([2]; A/A genotype, final dose more than 6 mg/week 12 months after start of administration): 0.485*; Ratio of high dose ([2]; A/A genotype, final dose more than 6 mg/week 12 months after start of administration, listed as MTX): 0.485*,**; Possibility that patients are required to have a high dose ([2]; A/A genotype, more than 6 mg/week at 12 months): 49%; Risk ratio of high dose ([2]; A/A versus A/C genotype): 1.7; Risk ratio of high dose ([2]; A/A versus C/C genotype): 3.8; Ratio of high dose ([2]; A/C + C/C genotypes, dose more than 6 mg/week 12 months after start of administration): 0.259}; Ratio of high dose ([2]; A/C genotype, final dose more than 6 mg/week 12 months after start of administration): 0.283*; Possibility that patients are required to have a high dose ([2]; A/C genotype, more than 6 mg/week at 12 months): 28%; Ratio of high dose ([2]; C/C genotype, final dose more than 6 mg/week 12 months after start of administration): 0.125**; Possibility that patients are required to have a high dose ([2]; C/C genotype, more than 6 mg/week at 12 months): 13%; Ratio of high dose ([2]; Total, all genotypes (157 persons), final dose more than 6 mg/week 12 months after start of administration): 0.408; Individuals classified to a high dose ([2]; either A/C or C/C genotype, more than 6 mg/week at 12 months): 26%
